The source of these data is a melting point compilation (Tetko et al.; mined from patent text by program, amines drawn as free bases though some values may be those of a salt).

On to `COC(=O)C1OC(CC(C)C)(c2ccc(Cl)cc2)OC1C(=O)OC` (stereo not given), for which the melting point (as a rule, the temperature of the solid-liquid transition) was determined as 40 °C.

`COc1ccc(Cn2nc(CO)c3cc(OC)c(OC)cc32)cc1OC` came in with a melting point of 187 °C.

Consider `O=c1[nH]c2ncc(-c3cccc(-c4nnn[nH]4)c3)nc2n1CC1CCCCC1`, for which the melting point was in the range of 248 to 250 °C.

Consider `COc1ccc(-c2cc3ccccc3[nH]2)cc1NCc1ccc([N+](=O)[O-])cc1`, for which the melting point lay in the range of 198 to 199 °C.

`CCCOCN(C(=O)CCl)c1c(OC)cccc1OC`: the melting point lay within 83 to 85 °C.

In turn, `O=C1Cn2nccc2-c2ccccc2N1` gave a melting point of 236 to 240 °C.

In the case of `Nc1nc2c(sc(=O)n2Cc2ccc(Br)cc2)c(=O)[nH]1`, the melting point was > 320 °C.

As for `O=C1N(CCN2CCC(c3noc4cc(F)ccc34)CC2)CCN1Cc1ccccc1`, the melting point is 126 to 130 °C.

Compound `CC(C)N1C(CO)=Cc2ccsc2S1(=O)=O` gave a melting point of 67 to 69 °C.

As for `COc1ccc(Oc2cccc3ncnc(NC(=O)Nc4cccc(Br)c4)c23)cc1`, the melting point is 249 to 251 °C.

In turn, `CC1(C)CC(C)(C)c2cc(NC(=O)c3ccc(O)cc3)ccc21` showed a melting point of 185 to 187 °C.

With `CCCCCS(=O)(=O)NC(=O)OCc1ccc(OS(=O)(=O)CCC)cc1Oc1ncc(C(F)(F)F)cc1Cl`, the melting point is 86 to 89 °C.

Take `CC(=O)c1ccc(OCc2ccccc2)c(CS(C)(=O)=O)c1`: the melting point was 94 to 97 °C.

In turn, `COc1cc2ccc3c4cc5c(cc4cnc3c2cc1OC)OCO5` registered a melting point of 275 to 277 °C.

In turn, `CN(C)c1c([N+](=O)[O-])cc(-c2nc(Cl)c(CC#N)n2Cc2ccccc2)cc1[N+](=O)[O-]` gave a melting point of 173 to 175 °C.

Consider `CCOC(=O)Cc1c(C)n(Cc2ccccc2)c2ccc(OCc3nc4ccccc4s3)cc12`, for which the melting point fell in the range of 106 to 107 °C.

For `O=C(c1nc(-c2ccccc2)nc2ccccc12)N1CCCCC1`, the melting point stood at 160 °C.

Regarding `COC(=O)c1nc(C2CC2)nc(SC)c1Cl`, the melting point was 74 to 75 °C.

`N#CCCOc1ccc(F)cc1` came in with a melting point of 84 to 85 °C.

`CCO/N=C(/CC)c1ccc(Cl)c2nc3n(c12)CCCN3c1ccc(Cl)cc1Cl` had a melting point of 140 to 141 °C.

On to `COC(=O)Cc1c(-c2ccc3c(c2)OCO3)c2ccccc2n(Cc2ccccc2OC)c1=O`, for which the melting point lay in the range of 71 to 72 °C.

Turning to `O=P(O)(O)C(O)(CCc1ccc(Cl)cc1)P(=O)(O)O`, the melting point is 201 °C.

Take `COc1ccc(CNc2nnc(OCCCO)c3ccc(Cl)cc23)cc1Cl`: the melting point is 124 to 126 °C.

`CC(C)c1nc2c3c(c(C(=O)N(C)C)cc2n1C)CCC(c1ccccc1)O3` (stereo not given) registered a melting point of 179 to 180 °C.

As to `COP(=O)(Cc1c(Cl)c(Cl)c(CP(=O)(OC)OC)c(Cl)c1Cl)OC`, the melting point lay within 179 to 181 °C.

As to `Cn1c(=O)sc2cc(N3C[C@H](C(=O)NCCO)OC3=O)ccc21`, the melting point fell in the range of 217 to 219 °C.

Compound `CC(N)=CC(=O)c1cccnc1` came in with a melting point of 82 °C.

As for `COc1ccccc1Oc1ccc(Cl)cc1C(=O)O`, the melting point is 115 to 118 °C.

As to `CC1OC(=O)C(c2cccc(C(F)(F)F)c2)=C1O` (stereo not given), the melting point worked out at 175 °C.

With `Cc1noc(NS(=O)(=O)c2cc(Cl)c(Cl)cc2Cl)c1Br`, the melting point lay in the range of 179 to 182 °C.

As to `COC(=O)c1ccc2occ(-c3ccc(S(C)=O)cc3)c2c1` (stereo not given), the melting point lay in the range of 145 to 146 °C.

The compound `O=C1SCC(O)=C1Cc1ccc(OCCc2ccccc2)cc1` yielded a melting point of 170 to 171 °C.

`COc1ccc([C@@H]2Sc3cc(Cc4ccc(F)cc4)ccc3NC(=O)[C@@H]2O)cc1` gave a melting point of 216 to 218 °C.

`Cn1c(Cl)nc2cc(F)ccc21` registered a melting point of 138 to 141 °C.

`CC1=C(c2ccccc2)C(=O)N(C(C)(C)C(=O)c2cc(F)cc(F)c2)CO1` displayed a melting point of 157 to 158 °C.

The compound `COc1ccc(C(=O)NCC(O)CCl)cc1OC` (stereo not given) displayed a melting point of 104 to 106 °C.

The compound `COc1ccc2c(c1)c1c(n2C)CCCC1=O` came in with a melting point of 150 to 151 °C.

With `Cc1cc(Nc2ccc(Cl)cc2)nc(-n2nc(C)cc2C)n1`, the melting point was in the range of 181 to 183 °C.

`Cc1sc(I)c(C)c1CO`: the melting point is 118 to 120 °C.

In the case of `O=C1C=c2c(c3c(c4[nH]c5ccccc5c24)Cc2ccccc2-3)=N1`, the melting point lay within 275 to 280 °C.

For the compound `COC(=O)Cc1nc(-c2ccc(Cl)cc2)oc1Oc1cccc([N+](=O)[O-])c1`, the melting point lay within 97 to 99 °C.

As to `O=C(CCCl)NCc1ccc2ccn(C3CCN(CCc4ccc(F)cc4)CC3)c2c1`, the melting point was 121 to 122 °C.

The compound `COC(=O)c1sc(CBr)cc1NC(=O)Nc1ccc(C)cc1` came in with a melting point of 157 to 158 °C.

Compound `CCCc1ccc(S(=O)(=O)Nc2ccc(OC)nc2)cc1` displayed a melting point of 93 to 94 °C.

Take `COc1ccc(CNn2nnc3c(-c4ccco4)ncnc32)cc1`: the melting point is 166 to 168 °C.

`CC(C)(C)OC(=O)N1C(=O)[C@@H](O[Si](C)(C)C)[C@H]1c1ccccc1` returned a melting point of 85 to 88 °C.

In the case of `O=C(c1cc2ccccc2o1)C12CC3CC(CC(C3)C1)C2`, the melting point fell in the range of 129 to 131 °C.

For `O=C(O)[C@H](Cc1ccc(O)cc1)NS(=O)(=O)c1ccc(N2CCC(c3ccccc3)CC2)cc1`, the melting point fell in the range of 108 to 110 °C.

`COc1ccc2[nH]cc(CCC(=O)Nc3ccccc3C(=O)O)c2c1` gave a melting point of 168 to 170 °C.

Compound `COC(CNc1nc(C)nc2cccc(C)c12)OC` yielded a melting point of 48 to 49 °C.

`O=C1CCOc2c1ccc(O)c2Cc1ccccc1` gave a melting point of 176 °C.

In turn, `OCC(O)(CO)c1ccc(F)cc1F` came in with a melting point of 58 to 59 °C.

Compound `COC(=O)c1ccc(NC(=O)NCCCl)cc1` came in with a melting point of 163 to 165 °C.

`CN1C(=O)C(C(=O)Nc2cccc(C(F)(F)F)c2)S(=O)(=O)c2ccc(Cl)cc21` (stereo not given) registered a melting point of 196 to 200 °C.

Turning to `CC(=NO)c1nn(C)c2cc(OCC3CC3(Cl)Cl)c(F)cc12` (stereo not given), the melting point lay within 150 to 152 °C.

`Cc1cccc(C(=O)Nc2ccc(N3CCN(Cc4cccc(C#N)c4)CC3)cc2)c1-c1ccc(C(C)C)cc1`: the melting point was determined as 137 °C.

In turn, `Cc1ccccc1C(=O)N(c1ccccc1)c1ccc(OCCN(C)C)cc1` showed a melting point of 98.5 to 102 °C.

Compound `C#Cc1ccc(C(=O)OC)c(O)c1` gave a melting point of 62 °C.

Take `CC(NC(=O)C=Cc1ccc(C(C)(C)C)cc1)c1ccc(NS(C)(=O)=O)c(F)c1` (stereo not given): the melting point was 154 to 156 °C.

On to `CC(C)(C)OC(=O)C(ON1CCNC1=Nc1c(Cl)cccc1Cl)c1ccccc1` (stereo not given), for which the melting point fell in the range of 88 to 90 °C.

Turning to `O=[N+]([O-])c1ccc(N2C[C@@H]3C[C@H]2CO3)c(F)c1`, the melting point lay in the range of 106 to 108 °C.

Turning to `CN1C(=O)CCC(C)(C)c2ccc(NC(=O)c3ccc(C(=O)O)cc3)cc21`, the melting point was > 250 °C.

The compound `Cc1ccc(Cc2cnc(NCCCN(Cc3ccc(Cl)cc3)c3ccccn3)[nH]c2=O)cn1` returned a melting point of 88 to 92 °C.

The compound `CC(=O)NNC(=N)C(Cl)(Cl)Cl` had a melting point of 130 to 132 °C.

As to `CCOc1nc2ccccc2nc1NC(=O)N1CCN(c2cc(OC)cc(OC)c2)CC1`, the melting point was 149 to 150 °C.
